This is an account of results in patent US5346812A, “Teratogen assay” (priority 1992, dated 1994).

Entries after “also recorded” stand apart in the source; their conditions may differ. Like-named read-outs stand apart in the source and are kept apart here.

Data set [1] relates to 23 kDa heat shock protein gene promoter (hsp23-β-galactosidase hybrid gene). The data set can be described thus: Drosophila heat shock hybrid gene expression assay (colorimetric beta-galactosidase assay) in primary embryonic cells from transformed flies. To be noted: for FOLD INDUCTION OF B-GAL ACTIVITY: Experiment I, strain 700.2 embryonic cells, relative to nontreated cells. An excerpt:
A representative hybrid gene in accordance with the above description includes a 23 kDa heat shock protein gene fragment beginning at the Pst I site 1.5 kb upstream from and extending through the transcription start site and the entire RNA leader region to a Pvu II site at codon 45 of the 23 kDa protein coding sequence, inserted upstream from a truncated (at codon 7 or 8) E. coli β-galactosidase gene. It addition, a 2.4-kb-long segment containing 3' nontranslated and nontranscribed sequences from a D. melanogaster 70 kDa heat shock protein gene is placed downstream from the β-galactosidase gene.
For the experiments with teratogens described below, only the 700 lines (see Table 2) were used. These lines carry a hybrid gene controlled by a 554 nucleotide-long segment of the 23 kDa heat shock protein gene promoter.
Preparation of embryos, cultures of primary cells, and incubation with teratogens
1. A creamy paste of yeast is placed on a piece of wet filter paper and such coated paper: deposited on 150 mm food plates. Embryos are then collected on these plates for 3 hours (inside a large fly cage). (For additional details, see the appended Materials and Methods section.)
2. The plates with the embryos are incubated further for 3.5 hours (embryos will reach the gastrulation stage).
3. The filter paper containing yeast is discarded. The plates are flooded with water, the embryos are brushed down, passed through a 1 mm (pore size) mesh and then collected on a 90 μm mesh.
4. Embryos are washed extensively with water. Subsequently they are picked up with a spatula and are placed into a solution of 10 ml chlorox/10 ml ethanol (95%). After a brief incubation, the embryos are transferred to a sintered glass funnel attached to a vacuum line and are washed with several volumes of sterile distilled water, No more than 2 minutes should elapse between the first exposure of the embryos to chlorox-ethanol solution and the beginning of the wash steps.
5. The embryos are then washed in 6 ml of culture medium. It is important to note that the embryos are not allowed to dry out during the wash procedure.
6. The wet embryos are transferred with a blunt spatula into a homogenizer containing 7 ml of culture medium. (Alternatively, they can be washed down into the homogenizer with medium.)
7. Three gentle passes are made with the loose fitting pestle.
8. Cell aggregates are broken up by repeated pipetting with a 1 ml pipette, and the cell suspension is passed through a 53 μm mesh.
9. The filtrate is collected in a 15 ml sterile disposable centrifuge tube and spun at 1800 rpm for 4 minutes (at room temperature).
10. The supernatant is decanted, and the cells are washed once more with 4 ml of medium.
11. The cells are finally suspended in 4 ml medium by repeated pipetting with a 1 ml pipette and are counted on a hemocytometer.
12. The cells are plated in 35 mm dishes at a density of 3.2×10^6cells per 2 ml of medium.
13. Forty-five minutes later the medium is removed from each dish, and 2 ml of fresh medium containing the chemical to be tested for teratogenicity is added. The culture is then incubated at 22° C. for 20 hrs. […] The cells are subsequently processed for the β-galactosidase assay (see below).
1. Cells in 35 mm dishes are washed once with phosphate-buffered saline and are then transferred to 15 ml centrifuge tubes.
2. The cells are collected by centrifugation (clinical centrifuge, 2000 rpm, 5 min) and are taken up in 350 μl of Z buffer (defined below) containing 0.5% of Nonidet NP40. The cells are lysed by repeated pipetting. Lysates are transferred to 1.5 ml Eppendorf tubes.
3. After a 5 minute spin (in the Eppendorf centrifuge) the supernatants are transferred to another set of tubes.
4. To 200 μl of this extract, 275 μl of substrate solution ONPG (4 mg/ml) in Z-buffer is added. The assays are run with straight as well as with diluted extract samples.
5. The reactions are incubated at 37° C. for 30 min.

The conditions of data set [2]: use by pregnant women; cited from earlier work.
For data set [3] the following is noted: shown in animal experiments; cited from earlier work.
The test system of data set [4] is 23 kDa heat shock protein gene promoter (hsp23-β-galactosidase hybrid gene) in S3 cells. Particulars: following exposure to ecdysterone; Lawson et al. 1985; Mestril et al.; cited from earlier work.
The test system of another data set is small heat shock genes. To be noted: ecdysterone added to the medium; Ireland et al. 1982; cited from earlier work.
For data set [5], the system named is 23 kDa heat shock protein gene promoter (hsp23-β-galactosidase hybrid gene) in S3 cells. In words: Hybrid gene (23 kDa heat shock protein-β-galactosidase) activity in transfected S3 cells. Format: cell-based, Drosophila melanogaster. Particulars: for E. coli-specific B-galactosidase, + ecdysterone: 3 μM, ELISA. The text has this:
The Drosophila melanogaster 23 kDa heat shock protein gene has been cloned and characterized by Voellmy et al. (Cell 23:261-270, 1981). Segments containing extensive 5' nontranscribed sequences from the 23 kDa heat shock protein gene, the RNA leader region, and part of the protein-coding region were linked in frame to an E. coli β-galactosidase gene. The resulting constructs encode a hybrid protein with β-galactosidase activity that is made under the control of the linked heat shock gene sequences (Lawson, R., et al., Dev. Biol. […], 1985). These constructs were introduced into Drosophila melanogaster S3 cells (an established cell line) by transfection (Lawson, R., et al., Mol. Gen. Genet. 198:116-124, 1984).
The construction of 23 kDa heat shock protein-β-galactosidase hybrid genes had been described (Lawson, R., et al., Dev. Biol. 110:321-330, 1985). The structure of a representative construct, p523/35, is shown in FIG. 4 (modified from Mestril, R., et al., EMBO J. 5(7):1667-1673, 1986). […] Hybrid gene activity was assessed in cell extracts both by a colorimetric enzymatic assay and by ELISA using antibodies specific for E. coli β-galactosidase (Lawson, R., et al., Dev. Biol. 110:321-330, 1985).
Derivatives of this basic construct that contained 23 kDa heat shock gene promoter sequences of different lengths were prepared, and their activity was tested using heat shock in transfected S3 cells (Mestril, R., et al., EMBO J. 4:2971-2976, Mestril, R., et al., EMBO J. 5:1667-1673, 1986).
A list of the cp20.1 derivatives of hybrid genes with 23 kDA heat shock protein gene promoter segments of different lengths is shown in Table 1. The functionality of the genes was tested in cultured Drosophila melanogaster S3 cells. Transfected cells were either heat-treated (not shown), exposed for one day at 3 μM ecdysterone, or not treated. Levels of β-galactosidase in extracts were measured by the ELISA procedure described in Mestril et al., EMBO J. 5:1667-1673, 1986.
Levels of Bgalactosidase were measured in cell extracts using the ELISA
protocol described in Mestril et al., 1986 (Mestril,R., Schiller,P.,
Amin,J., Klapper,H., Ananthan,J. and Voellmy,R. (1986) EMBO J.
In general terms: An ELISA detects its analyte on a solid surface through an enzyme-linked reagent.

Setting [6] is: Drosophila melanogaster, 20 h, read-out: Fold Induction of B-Gal Activity.
Where [7] appears, read: Drosophila melanogaster, 20 h, read-out: FOLD INDUCTION OF B-GAL ACTIVITY

For the compound `[Cl][Hg][Cl]` [Hg Cl2], the “FOLD INDUCTION OF B-GAL ACTIVITY” value in data set [1] (0.005 mM, 20 hrs) was 3 FOLD.

In the case of `Cn1c(=O)c2c(ncn2C)n(C)c1=O` [Caffeine], in data set [1] (setting [6]), the fold induction at 1000 µM stood at 1.02.

`[Cl][Cd][Cl]` [Cd Cl2]: the “FOLD INDUCTION OF B-GAL ACTIVITY” value in data set [1] (0.25 mM, 20 hrs) came to 7 FOLD.

As to `O=C1CCC(N2C(=O)c3ccccc3C2=O)C(=O)N1` (stereo not shown) [Thalidomide], the “babies suffering from phocomelia” value in data set [2] is ~10,000 babies. For the same compound, the “synthesis of β-galactosidase in primary embryonic cells (in words)” value in data set [1] is on record as “directs the synthesis of β-galactosidase”. Moreover, the fold induction at 1000 µM in data set [1] (setting [6]) was 2.73.

`CC(=O)Oc1ccccc1C(=O)O` [ACETYL SALICYCLIC ACID]: the “CLASS (teratogen T / nonteratogen NT)” value in data set [3] is listed as “weak T”. The “FOLD INDUCTION OF B-GAL ACTIVITY” value in data set [1] (1.0 mM, 20 hrs) is reported as 1.5 FOLD.

For the compound `CC(=O)[C@H]1CC[C@H]2[C@@H]3CCC4=CC(=O)CC[C@]4(C)[C@H]3CC[C@]12C` [PROGESTERONE], in data set [1] (setting [7]), the fold induction at 10 µM came out at 1.

`CC(C)(O)CC[C@@H](O)[C@](C)(O)[C@H]1CC[C@@]2(O)C3=CC(=O)[C@@H]4C[C@@H](O)[C@@H](O)C[C@]4(C)[C@H]3CC[C@]12C` [ecdysterone]: in data set [4], the “synthesis of β-galactosidase in transfected S3 cells (in words)” value is listed as “produced E. coli-specific β-galactosidase; also recorded: directed the synthesis of β-galactosidase”. In addition, the “activation of the small heat shock genes (in words)” value in the data set with small heat shock genes is reported as “activation of the genes”. For the same compound, the “E. coli-specific B-galactosidase, + ecdysterone” value worked out at 0.1 in data set [5] (63 bp 5' nontranscribed segment, one day, 0.0 without ecdysterone); 0.1 in data set [5] (147 bp 5' nontranscribed segment, one day); 0.1 in data set [5] (197 bp 5' nontranscribed segment, one day); 0.3 in data set [5] (275 bp 5' nontranscribed segment, one day); 0.6 in data set [5] (295 bp 5' nontranscribed segment, one day); 1.0 in data set [5] (333 bp 5' nontranscribed segment, one day, 0.0 without ecdysterone). The “E. coli-specific B-galactosidase, + ecdysterone” value in data set [5] (363 bp 5' nontranscribed segment, one day) came to 1.1; in data set [5] (379 bp 5' nontranscribed segment, one day, 0.1 without ecdysterone) it was 2.0; in data set [5] (554 bp 5' nontranscribed segment, one day) it was 1.0. The “hybrid gene activity of constructs (in words)” value in data set [5] (several constructs, longest promoter segments, 3 μM ecdysterone, one day, inactive in untreated cells) is reported as “active”. Moreover, the fold induction at 10 µM in data set [1] (setting [7]) is 2.

In the case of `Nc1ncn([C@H]2C[C@H](O)[C@@H](CO)O2)c(=O)n1` [5-DEOXY-2' AZACYTIDINE], the “FOLD INDUCTION OF B-GAL ACTIVITY” value in data set [1] (0.01 mM, 20 hrs) stood at 4 FOLD.

With `CC1=C(/C=C/C(C)=C/C=C/C(C)=C/C(=O)O)C(C)(C)CCC1` [RETINOIC ACID (ALL TRANS)], in data set [1] (setting [7]), the fold induction at 50 µM amounted to 5.

Take `O=C1NC(=O)C(c2ccccc2)(c2ccccc2)N1` [DIPHENYLHYDANTOIN, DIPHENYL-HYDANTOIN]: the fold induction at 100 µM in data set [1] (setting [7]) was 2.

With `C[S+](C)[O-]` [DIMETHYL SULFOXIDE], in data set [1] (setting [7]), the fold induction at 1000 µM turned out to be 1.

As to `CN1C(=O)CN=C(c2ccccc2)c2cc(Cl)ccc21` [Valium], in data set [1] (setting [6]), the fold induction at 1000 µM was 6.5.

`CCO` [ETHYL ALCOHOL]: the fold induction at 160000 µM in data set [1] (setting [7]) was determined as 1.2.

On to `[Pb]` [Lead], for which the “Fold Induction of B-Gal Activity” value in data set [1] (Experiment II, 2.5 mM, 20 hrs, relative to nontreated cells (see Table 3)) was found to be 15.78 Fold. Moreover, the “synthesis of β-galactosidase in primary embryonic cells (in words)” value in data set [1] (primary embryonic cells from transformed flies) was “directs the synthesis of β-galactosidase”.

Consider `O=c1ccc2ccccc2o1` [COUMARIN], for which, in data set [5], the “hybrid gene activity in S3 cells (in words)” value was “did not induce hybrid gene activity”. Moreover, in data set [1] (setting [7]), the fold induction at 1000 µM came to 5.

On to `O=[As](O)(O)O` [ARSENATE], for which the “FOLD INDUCTION OF B-GAL ACTIVITY” value in data set [1] (0.2 mM, 20 hrs) worked out at 8 FOLD.

As for `CC/C(=C(/CC)c1ccc(O)cc1)c1ccc(O)cc1` [DIETHYL STILBOSTEROL], the fold induction at 10 µM in data set [1] (setting [7]) amounted to 7.
